Structures can show the parent of a compound that is named as a salt.

A short description of the first data set: Solubility of chemotherapeutic agents in solubilizing excipients and excipient blends. To be noted: all organic blends: PEG400/Tween; Cremophor or Solutol/PEG400; Cremophor or Solutol/DMA or ethanol/PEG400. The data set is classed as physicochemical. As for the experimental part:
Eleven compounds and seven solubilizing excipients were obtained from commercial sources (see Table 1). […] The excipients listed comprise all of the organic solubilizers currently approved by the FDA for intravenous use in human patients.
Concentration targets were calculated based on providing the same amount of drug used clinically over the time period typically allotted for each compound (see Table 2 for target concentrations). Each solubilizing mixture was started at the target concentration, and if ineffective, diluted 2-fold successively until solubilization was achieved (sometimes with the help of gentle heating, mixing, or sonication), or until the solution was tested at 1:16 the target concentration, in which case further testing was halted (this concentration is approximately what would be required to hit a target dose with a daily cartridge exchange in a delivery device).
Three primary formulation combinations were tested in this example: • Solvent and co-solvent systems (PEG400 and Tween® 20 or Tween® 80) • Surfactant and co-solvent systems (Cremophor® or Solutol® and PEG400) • Surfactant and solvent/co-solvent systems (Cremophor® or Solutol® and DMA or ethanol and PEG400) For the first two combinations, mixtures were made upfront and solubility of each compound tested within. For the third, the compound was pre-dissolved in either DMA or ethanol and the remaining components then added as a mixture.
As to `N.N.O=C([O-])C1(C(=O)[O-])CCC1.[Pt+2]` [carboplatin], the “solubility in organic blends tested” value is “insoluble in all of the organic blends tested”.
`CCc1c2c(nc3ccc(OC(=O)N4CCC(N5CCCCC5)CC4)cc13)-c1cc3c(c(=O)n1C2)COC(=O)[C@]3(O)CC` [irinotecan]: the “solubility in organic blends tested” value was “insoluble in all of the organic blends tested”.
On to `O=c1[nH]cc(F)c(=O)[nH]1` [5-FU, fluorouracil], for which the “solubility in organic blends tested” value is recorded as “insoluble in all of the organic blends tested”.
As for `Nc1ccn([C@@H]2O[C@H](CO)[C@@H](O)C2(F)F)c(=O)n1` [gemcitabine hydrochloride], the “solubility in organic blends tested” value is recorded as “insoluble in all of the organic blends tested”.

Still in this data set, the particulars now being: compound pre-dissolved in dimethylacetamide (DMA).
As to `CN(Cc1cnc2nc(N)nc(N)c2n1)c1ccc(C(=O)N[C@@H](CCC(=O)O)C(=O)O)cc1` [methotrexate], the “solubility in DMA” value was “sufficient to solubilize”.
On the same count and under the same terms, for `CC(=O)O[C@@]12CO[C@@H]1C[C@H](O)[C@@]1(C)C(=O)[C@H](O)C3=C(C)[C@@H](OC(=O)[C@H](O)[C@@H](NC(=O)OC(C)(C)C)c4ccccc4)C[C@@](O)([C@@H](OC(=O)c4ccccc4)[C@H]21)C3(C)C` [docetaxel] the value was “sufficient to solubilize”; for `CC[C@]1(O)C[C@@H]2CN(CCc3c([nH]c4ccccc34)[C@@](C(=O)OC)(c3cc4c(cc3OC)N(C)[C@H]3[C@@](O)(C(=O)OC)[C@H](OC(C)=O)[C@]5(CC)C=CCN6CC[C@]43[C@@H]65)C2)C1` [vinblastine], “sufficient to solubilize”.
`CC(=O)O[C@H]1C(=O)[C@@]2(C)[C@H]([C@H](OC(=O)c3ccccc3)[C@]3(O)C[C@H](OC(=O)[C@H](O)[C@@H](NC(=O)c4ccccc4)c4ccccc4)C(C)=C1C3(C)C)[C@]1(OC(C)=O)CO[C@@H]1C[C@@H]2O` [paclitaxel]: the “solubility in DMA” value was “sufficient to solubilize”.
The same measure, in the same setting: the value for `COc1cc([C@@H]2c3cc4c(cc3[C@@H](O[C@@H]3O[C@@H]5CO[C@@H](C)O[C@H]5[C@H](O)[C@H]3O)[C@H]3COC(=O)[C@H]23)OCO4)cc(OC)c1O` [etoposide] was “sufficient to solubilize”.

Still in this data set, the particulars now being: free base versus hydrochloride salt.
Regarding `Nc1ccn([C@@H]2O[C@H](CO)[C@@H](O)C2(F)F)c(=O)n1` [gemcitabine], the “solubility of free base instead of the salt” value is “increased solubility”.
